US10287328B2, “Treatment of diabetes, toll-like receptor 4 modulators and methods for using the same” (KeMyth Biotech Co., Ltd., priority 2016, dated 2019)

What was measured:
HUVECs [1] = assay: Cell apoptosis, TUNEL assay in HUVECs; assay type: cell-based, human; conditions: compared to control cells
Description: (§1) Cell apoptosis was detected by using commercial terminal deoxynucleotidyl transferase-dUTP nick end labeling (TUNEL) and caspase-3 activity kits, i.e., Apo-BrdU in Situ DNA Fragmentation Assay Kit (BioVision) and NucView™ 488 Caspase-3 Enzyme Substrate (Biotium). In brief, after incubation with M199 media in the presence or absence of […] various PLY peptides, at 37° C., 5% CO2 for 1 hour, HUVECs were washed with PBS and fixed with fixation buffer on ice for 20 min. Cells were then soaked in 70% alcohol for 1 hr. After 2 times of wash by washing buffer, cells were incubated in DNA labeling solution for 60 min at 37° C. Cells were then treated with rinse buffer and incubated with antibody buffer for 30 min at room temperature. The cell nuclei were stained with propidium iodide for 30 min. Samples were observed by fluorescent microscopeand photographed charge-coupled device (CCD) camera.

HUVEC = conditions: treated for 1, 4 and 7 hours (FIG. 16)
[2] = Body weight in C57BL/KsJ-db/db diabetic mice; assay type: in vivo; conditions: 2 mg/kg/3 days i.p. for 30 days, compared with control group, after week 2
Description: Male C57BL/KsJ-db/db mice (diabetic deficiency knockout mice) at 5 weeks of age (23 g) were fed a pelletized commercial chow diet for acclimation from the arrival for 2 weeks. […]. They were given free access to food and distilled water, and the food consumption and body weight gain were measured daily and weekly, respectively. […]; and (2) group 2 served as diabetic mice administered C70PLY4 (2 mg/kg/3 days) in aqueous suspension i.p. for 30 days (C70PLY4). […] The blood was centrifuged at 1000 g for 15 min at 4° C., and plasma and erythrocyte were separated. The livers and adipose tissues were removed, washed, weighted, and frozen at −70° C. until analyzed.

[3] = system: caspase-3 activity in HUVECs; assay type: cell-based, human; conditions: compared to control cells
Description: as §1
As to caspase-3 activity assay, after variant peptide treatments, HUVECs were washed by PBS. Cells were then reacted with Caspase-3 Enzyme Substrate 1 mM for 30 min at room temperature. Cells were then observed by fluorescent microscopeand photographed CCD camera.

[4] = system: ERK1/2 and NFκB-p65 subunit phosphorylation; assay: Western blot of LPS-induced ERK1/2 and NFκB-p65 phosphorylation in HUVECs; assay type: cell-based, human; conditions: LPS 1 μg/mL plus C70PLY4 100, 300 and 500 nM, 24 h
Description: Cells were kept as the control, treated with LPS (1 μg/mL), or co-treated with LPS (1 μg/mL) and C70PLY4 (100, 300, and 500 nM) for 24 h and the phosphorylation of ERK1/2 and NFκB-p65 subunit were determined by Western blot. Cells were collected by scraping and lysed with RIPA buffer containing 1% NP-40, 0.5% sodium deoxycholate, 0.1% SDS, and a protease inhibitor mixture (PMSF, aprotinin, and sodium orthovanadate). The total cell lysate (50 μg of protein) was separated by SDS-polyacrylamide gel electrophoresis (PAGE) (10% running, 4% stacking) and transferred onto a polyvinylidene fluoride membrane (Immobilon P, 0.45-μm pore size). The membrane was then incubated with the designated antibodies. Immunodetection was performed by using the Western-Light chemiluminescent detection system (Applied Biosystems, Foster City, Calif.).
The present study determined if C70PLY4 inhibits LPS-induced signaling, including protein ERK1/2 and NFκB-p65 subunit, in the human umbilical vein endothelial cells (HUVECs) by using western blot assay (FIG. 14, panel A). The cells were kept as control, treated with LPS (1 μg/mL) only for 24 h, or co-treated with LPS (1 μg/mL) and C70PLY4 (100, 300, and 500 nM) for 24 h and the protein phosphorylation of ERK1/2 and NFκB-p65 subunit were examined.

HUVECs [5] = assay type: cell-based, human
Description: Cell viability was detected by a methanethiosulfonate (MTS) assay. In brief, 2×10^4 HUVECs were seeded to a 48-well plates in 100 μl endothelial cell medium (ECM, ScienCell Research Laboratory, Cat. 1001, USA) per well and incubated for 24 hrs. The media was removed and the cells were then incubated with media having 2% fetal bovine serum (FBS), in the absence or presence of various peptides, such as PLY, PLY123, PLY4, C70PLY4 or N35PLY4, at a concentration of 1, 10 or 100 nM. After incubation for 18 hours, the media was removed and 20 μl MTS reagents (20%) were added to each well in the final volume of 100 μl and placed in incubator for 1 hours. The optical density was measured at 490 nm using a plate reader.

[6] = system: sICAM-1, sVCAM-1, sE-selectin; assay: Serum sICAM-1, sVCAM-1 and sE-selectin (ELISA) in HFD-induced type 2 diabetic rats; assay type: in vivo, Sprague-Dawley rats; conditions: STZ-injected HFD-fed rats, compared to STZ+vehicle
Description: The Sprague-Dawley rats were allocated to two dietary regimens by feeding either normal or HFD ad libitum, for the initial period of 2 weeks. After 2 weeks of dietary manipulation, the group of rats fed HFD were injected intraperitoneally (i.p.) with a low dose of STZ (35 mg/kg b.w.), while the respective control rats were given vehicle citrate buffer (pH 4.5) in a dose volume of 1 mL/kg, i.p. Seven days after STZ injection, rats were screened for blood glucose levels. Overnight fasted (10-12 hours) animals were given glucose (3 g/kg b.w.) by gastric intubation. After 2 hours of oral administration, blood samples were taken from lateral tail vein, left to coagulate and centrifuged; then serum glucose concentration was measured. Rats having serum glucose ≥200 mg/dL after 2 hours of glucose intake were considered diabetic and selected for further pharmacological studies. The rats were allowed to continue to feed on their respective diets until the end of the study (16).
The experimental animals were divided into three groups, each group comprising six rats designated as follows: (1) group 1 served as control rats (non-DM control); (2) group 2 served as diabetic control rats (STZ+vehicle); and (3) group 3 served as diabetic treatment rats administered with C70PLY4 (2 mg/kg/3 days) in aqueous suspension i.p. for 30 days (STZ+C70PLY4). By the end of the experiment, animals were sacrificed and blood samples, muscle and liver were obtained.
The levels of insulin, sICAM-1, sVCAM-1, and E-selectin in serum were determined by using sandwich ELISA (R&D) according to manufacturer's protocols.

For “QDLTAHFTTSIPLKGNVRNLSVKIRECTGLAWEWWRTVYEKTDLPLVRKRTISIWGTTLYPQVEDKVEND [C70PLY4]”, the “apoptotic potential, TUNEL assay” value (HUVECs [1]) was “no apoptotic potential”, the “cell morphology of HUVEC” value (HUVEC) was “did not affect the cell morphology” and the body weight [2] was “significantly decreases”. The “apoptotic potential, caspase-3 activity assay” value [3] was “no apoptotic potential”, the “LPS-induced ERK1/2 phosphorylation” value [4] was “significantly inhibited” and the “LPS-induced NFκB-p65 subunit phosphorylation” value [4] was “significantly inhibited”. The “toxicity to HUVECs (FIG. 15)” value (HUVECs [5]; MTS assay, 1, 10 or 100 nM, statement for high concentration (100 nM)) was “no toxic effects”, the “toxic effects to HUVECs at 100 nM or below” value (HUVECs [5]; MTS assays, 100 nM or below, data not shown) was “no toxic effects” and the “serum sE-selectin level” value [6] was “decreased”. The “serum sICAM-1 level” value [6] was “decreased sICAM-1” and the “serum sVCAM-1 level” value [6] was “decreased”.
